From patent US20180044343A1, “BICYCLIC IMIDAZOLO DERIVATIVE” (Sumitomo Dainippon Pharma Co., Ltd., priority 2015, published 2018)

molecular target: PDE1B (Homo sapiens, UniProt Q01064); assay: In vitro HTRF PDE1 inhibition assay (PDE1B); assay type: biochemical; settings: in vitro PDE1B HTRF Assay; read-out: IC50
Sequence (Q01064 whole entry): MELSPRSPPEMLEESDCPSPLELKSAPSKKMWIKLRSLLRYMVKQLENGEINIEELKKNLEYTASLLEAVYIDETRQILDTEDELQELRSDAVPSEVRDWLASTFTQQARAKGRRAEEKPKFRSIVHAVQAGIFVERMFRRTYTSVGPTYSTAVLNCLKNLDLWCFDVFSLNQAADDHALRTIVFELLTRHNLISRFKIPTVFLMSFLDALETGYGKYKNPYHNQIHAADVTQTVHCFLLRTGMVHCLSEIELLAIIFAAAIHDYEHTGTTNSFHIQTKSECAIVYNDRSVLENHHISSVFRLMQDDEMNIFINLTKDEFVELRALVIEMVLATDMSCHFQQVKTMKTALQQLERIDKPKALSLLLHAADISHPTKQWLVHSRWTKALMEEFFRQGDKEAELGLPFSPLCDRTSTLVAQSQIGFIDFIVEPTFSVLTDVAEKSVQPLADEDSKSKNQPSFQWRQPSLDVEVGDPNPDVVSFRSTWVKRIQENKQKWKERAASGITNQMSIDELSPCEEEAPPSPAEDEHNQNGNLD
From the text: The HTRF PDE1 assay utilized the HTRF (Homogenous Time Resolved Fluorescence) technology, which is based on the competition between unlabeled cyclic nucleotide and cyclic nucleotide labeled with XL665 for the binding to cyclic nucleotide-specific antibody labeled with cryptate. The HTRF signal is thus inversely proportional to the concentration of cyclic nucleotide being measured. Since phosphodiesterases break down cyclic nucleotides, the HTRF signal was used to determine PDE activity.
The Cisbio cGMP HTRF assay kit (Cat no: 62GM2PEC) was utilized. Cyclic GMP was diluted to 200 nM in HTRF assay buffer (1 mM CaCl2, 10 mM MgCl2, 10 mM Tris-HCl, 0.1% BSA, pH 7.4). […] PDE (1A3, 1B or 1C) was diluted to 2× working concentration in HTRF assay buffer with 2 μg/ml Calmodulin, and 10 μl was added to initiate the reaction. The plate was then incubated for 45 minutes at 27° C. d2-Labelled cyclic GMP and anti-cGMP cryptate were diluted in 50 mM phosphate buffer, 0.8 M KF, 1% Triton X100, 0.2% BSA, pH 7.0. Following incubation 10 μl d2-cGMP, then 10 μl anti cGMP cryptate were added to each well and the plate was incubated for 60 minutes at room temperature. The plate was then read on Perkin Elmer EnVision at 2 different FRET readings ex/em 340 nm/665 nm and 340 nm/615 nm.

Row | SMILES | IC50 [µM]
1 | CCOC[C@H]1CC[C@@H](Oc2nn3c(C4CCOCC4)ncc3c(=O)n2CC)CC1 [Example 321] | < 1
2 | CCn1c(OCC2CCC(F)(F)CC2)nn2c(N3CCCC3)ncc2c1=O [Example 332, 2-[(4,4-Difluorocyclohexyl)methoxy]-3-ethyl-7-(pyrrolidin-1-yl)imidazo[5,1-f][1,2,4]triazin-4(3H)-one] | 10 to 100
3 | Cn1c(OCC2(C(F)(F)F)CCCC2)nn2c(C3CCOCC3)ncc2c1=O [Example 295] | < 1
4 | Cn1c(OCc2ccc(-c3ccccc3)cc2)nn2c(C3CCOCC3)ncc2c1=O [Example 47] | < 1
5 | CC(C)c1ncc2c(=O)n(C)c(CN3Cc4ccccc4C3=O)nn12 [Example 232] | 1 to 10
6 | CCn1c(NCc2ccc(OC)cn2)nn2c(C(C)C)ncc2c1=O [Example 172] | < 1
7 | O=c1c2cnc(C3CCOCC3)n2nc(N2CCCC2)n1CC1CCCC1 [Example 212] | 10 to 100
8 | CCn1c(OCC2CCC(F)(F)CC2)nn2c(C3CCOCC3)nc(C)c2c1=O [Example 121] | < 1
9 | CCCn1c(OCC2CCC(F)(F)CC2)nn2c(C3CCOCC3)ncc2c1=O [Example 94] | < 1
10 | CC(C)c1ncc2c(=O)n(C)c(NCc3ccc(Cl)cc3)nn12 [Example 141] | < 1
11 | COc1nn2c(C3CCOCC3)ncc2c(=O)n1CCC(F)(F)F [Example 276] | 1 to 10
12 | Cn1c(OC[C@H]2CC[C@H](C(F)(F)F)CC2)nn2c(C3(O)CCOCC3)ncc2c1=O [Example 326, 7-(4-hydroxytetrahydro-2H-pyran-4-yl)-3-methyl-2-{[trans-4-(trifluoromethyl)cyclohexyl]-methoxy}imidazo[5,1-f][1,2,4]triazin-4(3H)-one] | 1 to 10
13 | COCC1CCN(c2nn3c(C4CCOCC4)ncc3c(=O)n2C)CC1 [Example 192] | < 1
14 | CCn1c(NCc2ccccn2)nn2c(C(C)C)ncc2c1=O [Example 169] | < 1
15 | CC(C)c1ncc2c(=O)n(C)c(OCc3cccnc3)nn12 [Example 5] | < 1
16 | CCn1c(OCCc2ccccc2)nn2c(C3CCOCC3)ncc2c1=O [Example 73] | < 1
17 | COCCn1c(OCc2ccc(F)cc2)nn2c(C3CCOCC3)ncc2c1=O [Example 279] | < 1
18 | CC(C)c1ncc2c(=O)n(C)c(NC3CCc4ccccc43)nn12 (centres unmarked) [Example 143] | < 1
19 | CN(C)C(=O)CN1CCCN(c2nn3c(C4CCOCC4)ncc3c(=O)n2C)CC1 [Example 197] | < 1

Row | SMILES | IC50 [µM]
20 | COCCn1c(OCC2CCC(F)(F)CC2)nn2c(C3CCOCC3)ncc2c1=O [Example 277] | 1 to 10
21 | COc1ccc(Cn2c(OC)nn3c(C4CCOCC4)ncc3c2=O)cc1 [Example 265] | < 1
22 | CC(=O)N1CCN(c2nn3c(C4CCOCC4)ncc3c(=O)n2C)CC1 [Example 195] | < 1
23 | Cn1c(N2CC[C@H](Oc3ccc(F)cn3)C2)nn2c(C3CCOCC3)ncc2c1=O [Example 190] | < 1
24 | O=c1c2cnc(C3CCOCC3)n2nc(N2CCCC2)n1CCC(F)(F)F [Example 209] | 10 to 100
25 | Cn1c(OCc2ccc(-c3ccc(Cl)cn3)cc2)nn2c(C3CCOCC3)ncc2c1=O [Example 50] | < 1
26 | COc1nn2c(C3CCOCC3)ncc2c(=O)n1Cc1cccnc1 [Example 267] | 1 to 10
27 | O=c1c2cnc(C3CCOCC3)n2nc(OCCc2ccc(Cl)cc2)n1CC1CC1 [Example 98] | < 1
28 | CCn1c(NCc2ccc(C#N)cn2)nn2c(C(C)C)ncc2c1=O [Example 175] | < 1
29 | CCc1ccc(CNc2nn3c(C(C)C)ncc3c(=O)n2C)nc1 [Example 159] | < 1
30 | CC(C)c1ncc2c(=O)n(C)c(CN3CCCc4cc(Cl)ccc43)nn12 [Example 229, 2-[(6-Chloro-3,4-dihydroquinolin-1(2H)-yl)methyl]-3-methyl-7-(propan-2-yl)imidazo[5,1-f][1,2,4]triazin-4(3H)-one] | < 1
31 | Cn1c(NCc2ccc(Cl)cc2)nn2c(C3CCOCC3)ncc2c1=O [Example 180] | < 1
32 | CO[C@H]1CC[C@H](Oc2nn3c(C4CCOCC4)ncc3c(=O)n2C(C)C)CC1 [Example 311] | < 1
33 | Cc1ccc(OCc2nn3c(C(C)C)ncc3c(=O)n2C)cc1 [Example 225] | 1 to 10
34 | CC(C)c1ncc2c(=O)n(C)c(NC3CCCc4ccccc43)nn12 (centres unmarked) [Example 138, 3-Methyl-7-(propan-2-yl)-2-(1,2,3,4-tetrahydronaphthalen-1-ylamino)imidazo[5,1-f][1,2,4]triazin-4(3H)-one] | < 1
35 | COCCn1c(OCC2CCC(F)(F)CC2)nn2c(C(C)C)ncc2c1=O [Example 278] | < 1
36 | CCn1c(OCc2ccc(-c3ccc(F)cc3)cc2)nn2c(C3CCOCC3)ncc2c1=O [Example 80] | 1 to 10
37 | COc1nn2c(C3CCOCC3)ncc2c(=O)n1CCC1CCC(F)(F)CC1 [Example 105] | < 1
38 | CC(C)c1ncc2c(=O)n(C)c(N[C@@H]3CCCc4ccccc43)nn12 [Example 144] | < 1

Row | SMILES | IC50 [µM]
39 | O=c1c2cnc(C3CCOCC3)n2nc(OCC2CCC(F)(F)CC2)n1C1CC1 [Example 95] | < 1
40 | CC(C)n1c(N2CCCC2)nn2c(C3CCOCC3)ncc2c1=O [Example 207] | 10 to 100
41 | CO[C@H]1CCN(c2nn3c(C4CCOCC4)ncc3c(=O)n2C)C1 [Example 187] | < 1
42 | Cn1c(N2CCCC2)nn2c(C3CCOCC3)ncc2c1=O [Example 183] | < 1
43 | CCn1c(OCc2ccc(-c3ccc(C)cc3)cc2)nn2c(C3CCOCC3)ncc2c1=O [Example 81] | < 1
44 | Cn1c(OCC2CCOCC2)nn2c(C3CCC3)ncc2c1=O [Example 111] | < 1
45 | CCOC[C@H]1CC[C@H](COc2nn3c(C4CCOCC4)ncc3c(=O)n2CC)CC1 [Example 289] | < 1
46 | COCCN1CCCN(c2nn3c(C4CCOCC4)ncc3c(=O)n2C)CC1 [Example 220, 2-[4-(2-Methoxyethyl)-1,4-diazepan-1-yl]-3-methyl-7-(tetrahydro-2H-pyran-4-yl)imidazo[5,1-f][1,2,4]triazin-4(3H)-one] | 10 to 100
47 | COc1nn2c(C(C)C)ncc2c(=O)n1CC1CCC(F)(F)CC1 [Example 263] | < 1
48 | CCc1ccc([C@H]2CCCN2c2nn3c(C(C)C)ncc3c(=O)n2C)cc1 [Example 168] | < 1
49 | CCO[C@H]1CC[C@H](COc2nn3c(C4CCOCC4)ncc3c(=O)n2C2CC2)CC1 [Example 291] | < 1
50 | CCn1c(OCCCc2ccccn2)nn2c(C3CCOCC3)ncc2c1=O [Example 63] | < 1
51 | CCO[C@H]1CC[C@H](Oc2nn3c(C4CCOCC4)ncc3c(=O)n2C)CC1 [Example 314] | < 1
52 | CC(C)c1ncc2c(=O)n(C)c(OCc3ccncc3)nn12 [Example 15] | < 1
53 | COc1nn2c(C3CCOCC3)ncc2c(=O)n1CC1CCCC1 [Example 274] | < 1
54 | COc1cccc(Cn2c(OC)nn3c(C4CCOCC4)ncc3c2=O)c1 [Example 266] | < 1
55 | CN(C)C(=O)C1CCN(c2nn3c(C4CCOCC4)ncc3c(=O)n2C)CC1 [Example 194] | 1 to 10
56 | O=c1c2cnc(C3CCOCC3)n2nc(OCc2ccc(-c3ccccn3)cc2)n1CC1CC1 [Example 97] | < 1
